US20030162814A1, “N-substituted 1-amino-1,1-dialkylcarboxylic acid derivatives” (priority 2000, published 2003)

melting point [°C]	Structure (SMILES)
153	CC(=O)O.CC(C)(C)NS(=O)(=O)c1ccccc1-c1ccc(NC(=O)C(C)(C)Nc2cccc(C(=N)N)c2)cc1
197	CC(C)(Nc1cccc(C(=N)N)c1)C(=O)Nc1ccc(-c2ccccc2S(N)(=O)=O)cc1.O=C(O)C(F)(F)F
190 to 193	CC(C)(C)NS(=O)(=O)c1ccccc1-c1ccc(NC(=O)C(C)(C)Nc2cccc(C#N)c2)cc1 [CB, N-(2′-tert-butylsulfamoyl-biphenyl-4-yl)-2-(3-cyanophenylamino)-2-methylpropionamide]
